In brackets after ≈: the same amount, converted by molar mass. Numbered stars: 1 amine (or outer) side, 2 acyl side, 3 side chain; on linkers, the order of the positions; unused ones are H or OH. Bridge positions count the residues as written; N and C are the ends. Square brackets hold non-standard residues; d marks the D form. Peptide text beside a SMILES is read from it. * marks the point of attachment. β2hAla(R) = C[C@H](CN[*:1])C(=O)[*:2]; Decanoyl = CCCCCCCCCC(=O)*; Dap = NC[C@H](N)C(=O)O; Sar = CNCC(=O)O
Experiments:
[1] = head-to-tail type lactamisation of side-chain-protected branched depsipeptide (Gly10 N-terminus of ester branch + C-terminal Pro9), HATU/DIPEA (pH ~10), microwave; conditions: the molecule shown is the open-chain precursor; 28-membered ring; DCM; 6.0 mM; 70.0 °C; 1.0 h
[2] = TLC precursor-binding assay with lipid II; parameters: key to Lipid II (TLC binding): “+” indicates binding confirmed; “-” indicates no binding; “~” indicates potential binding with absence of precursor band; conditions: for Lipid II (TLC binding): peptide 0.5, 1, 2 equiv. (nisin 0.1, 0.5, 1 equiv.) with lipid II in Tris·HCl pH 7.5, 50 mM CaCl2, 1 h, silica TLC
Method: (§1) Lipid II and undecaprenyl phosphate (C55-P) (1 equiv., 30 µL) in Tris•HCl buffer (0.2% Triton X-100, 26 mM MgCl2, and 50 mM CaCl2 at pH 7.5) were incubated with the peptides (0.5, 1, 2 equiv.) or nisin (0.1, 0.5, 1 equiv.) in 30 µL water for 1 h. The reaction was then extracted with ^tBuOH/6 M PyOAc (2/1 v/v, 100 µL) and the organic phase was dried using an Eppendorf vacuum centrifuge 5301 (Fisher Scientific, Loughborough, UK) under reduced pressure. The solid was redissolved in CHCl3/MeOH (1/1 v/v, 30–60 µL) for spotting onto the TLC plates. In addition to the peptide–lipid mixtures, a control of each peptide/nisin with 30 µL buffer, and a control of each lipid with 30 µL HPLC-grade water were also incubated and subjected to the same workup. Silica TLC plates were run in a CHCl3/MeOH/H2O/NH3 (88/48/10/1 v/v) solvent system and stained using iodine vapour, phosphomolybdic acid (PMA), or KMnO4 stain, as well as visualisation at 254 nm and 365 nm.

[3] = TLC precursor-binding assay with C55-P; parameters: key to C55-P (TLC binding): “+” indicates binding confirmed; “-” indicates no binding; “~” indicates potential binding with absence of precursor band; conditions: for C55-P (TLC binding): peptide 0.5, 1, 2 equiv. with C55-P in Tris·HCl pH 7.5, 50 mM CaCl2, 1 h, silica TLC
Method: as §1

[4] = system: B. subtilis 168; type: cell-based; conditions: 168, 24 h
Method: MICs were measured in triplicate by microbroth dilution. An overnight culture of B. subtilis 168 (DSMZ German Collection of Microorganisms and Cell Cultures GmbH) was inoculated at 5 × 10^5 CFU/mL in cation-adjusted Mueller–Hinton broth (MHB II) with or without 15 mM or 100 mM CaCl2. Serial two-fold peptide dilutions (128 - 1 µg/mL for analogues and 16 - 0.25 µg/mL for daptomycin) were incubated in polypropylene U-bottom 96-well plates (200 µL final volume) at 37 °C for 24 h. MIC was the lowest concentration at which no growth was observed. Optical density measurements at 620 nm were performed using a Thermo Scientific Multiskan FC (Thermo Fisher Scientific Inc., Paisley, UK). MIC was determined from the lowest concentration at which no tubidity was observed, using an untreated positive growth control, and a broth-only sterility control as references.

Lipid II (TLC binding) [2]	C55-P (TLC binding) [3]	MIC + Ca^2+ [4] [µg/mL]	MIC − Ca^2+ [4] [µg/mL]	C55-P spot on TLC after incubation with peptide (in words) ([3]; absence of C55-P spot = potential indicator of binding, KMnO4 staining in Figure S5)	binding to lipid II in TLC assay (in words) ([2]; lipid II spot on TLC after incubation, PMA staining in Figure S6)	SMILES	ring closure, overall yield [1] [%]
						CCCCCCCCCC(=O)NC[C@@H](C)C(=O)NCC(=O)N[C@H](CCC(=O)OC(C)(C)C)C(=O)N[C@@H](Cc1ccc(OC(C)(C)C)cc1)C(=O)N[C@H](C(=O)N[C@@H](C(=O)N[C@@H](CC(=O)OC(C)(C)C)C(=O)N[C@@H](CC(=O)OC(C)(C)C)C(=O)N1CCC[C@H]1C(=O)O)[C@H](C)CC)[C@@H](C)OC(=O)CN(C)C(=O)[C@H](CC(=O)OC(C)(C)C)NC(=O)[C@@H](CC(=O)OC(C)(C)C)NC(=O)CN	0.3
						CCCCCCCCCC(=O)NC[C@@H](C)C(=O)NCC(=O)N[C@H](CCC(=O)OC(C)(C)C)C(=O)N[C@@H](Cc1ccc(OC(C)(C)C)cc1)C(=O)N[C@H](C(=O)N[C@@H](C(=O)N[C@@H](CC(=O)OC(C)(C)C)C(=O)N[C@@H](CC(=O)OC(C)(C)C)C(=O)N1CCC[C@H]1C(=O)O)[C@H](C)CC)[C@@H](C)OC(=O)CN(C)C(=O)[C@H](CC(=O)OC(C)(C)C)NC(=O)[C@@H](CCC(=O)OC(C)(C)C)NC(=O)CN	0.4
						CCCCCCCCCC(=O)NC[C@@H](C)C(=O)NCC(=O)N[C@H](CCC(=O)OC(C)(C)C)C(=O)N[C@@H](Cc1ccc(OC(C)(C)C)cc1)C(=O)N[C@H](C(=O)N[C@@H](C(=O)N[C@@H](CC(=O)OC(C)(C)C)C(=O)N[C@@H](CC(=O)OC(C)(C)C)C(=O)N1CCC[C@H]1C(=O)O)[C@H](C)CC)[C@@H](C)OC(=O)CN(C)C(=O)[C@H](CC(=O)OC(C)(C)C)NC(=O)[C@H](CC(=O)OC(C)(C)C)NC(=O)CN	0.4
						CCCCCCCCCC(=O)NC[C@@H](C)C(=O)NCC(=O)N[C@H](CCC(=O)OC(C)(C)C)C(=O)N[C@@H](Cc1ccc(OC(C)(C)C)cc1)C(=O)N[C@H](C(=O)N[C@@H](C(=O)N[C@@H](CC(=O)OC(C)(C)C)C(=O)N[C@@H](CC(=O)OC(C)(C)C)C(=O)N1CCC[C@H]1C(=O)O)[C@H](C)CC)[C@@H](C)OC(=O)CN(C)C(=O)[C@H](CC(=O)OC(C)(C)C)NC(=O)[C@H](CCC(=O)OC(C)(C)C)NC(=O)CN	0.2
						CCCCCCCCCC(=O)NC[C@@H](C)C(=O)NCC(=O)N[C@H](CCC(=O)OC(C)(C)C)C(=O)N[C@@H](Cc1ccc(OC(C)(C)C)cc1)C(=O)N[C@H](C(=O)N[C@@H](C(=O)N[C@@H](CC(=O)OC(C)(C)C)C(=O)N[C@@H](CC(=O)OC(C)(C)C)C(=O)N1CCC[C@H]1C(=O)O)[C@H](C)CC)[C@@H](C)OC(=O)CN(C)C(=O)[C@H](CCC(=O)OC(C)(C)C)NC(=O)[C@@H](CC(=O)OC(C)(C)C)NC(=O)CN	0.3
						CCCCCCCCCC(=O)NC[C@@H](C)C(=O)NCC(=O)N[C@H](CCC(=O)OC(C)(C)C)C(=O)N[C@@H](Cc1ccc(OC(C)(C)C)cc1)C(=O)N[C@H](C(=O)N[C@@H](C(=O)N[C@@H](CC(=O)OC(C)(C)C)C(=O)N[C@@H](CC(=O)OC(C)(C)C)C(=O)N1CCC[C@H]1C(=O)O)[C@H](C)CC)[C@@H](C)OC(=O)CN(C)C(=O)[C@H](CCC(=O)OC(C)(C)C)NC(=O)[C@@H](CCC(=O)OC(C)(C)C)NC(=O)CN	0.5
						CCCCCCCCCC(=O)NC[C@@H](C)C(=O)NCC(=O)N[C@H](CCC(=O)OC(C)(C)C)C(=O)N[C@@H](Cc1ccc(OC(C)(C)C)cc1)C(=O)N[C@H](C(=O)N[C@@H](C(=O)N[C@@H](CC(=O)OC(C)(C)C)C(=O)N[C@@H](CC(=O)OC(C)(C)C)C(=O)N1CCC[C@H]1C(=O)O)[C@H](C)CC)[C@@H](C)OC(=O)CN(C)C(=O)[C@H](CCC(=O)OC(C)(C)C)NC(=O)[C@H](CC(=O)OC(C)(C)C)NC(=O)CN	0.2
						CCCCCCCCCC(=O)NC[C@@H](C)C(=O)NCC(=O)N[C@H](CCC(=O)OC(C)(C)C)C(=O)N[C@@H](Cc1ccc(OC(C)(C)C)cc1)C(=O)N[C@H](C(=O)N[C@@H](C(=O)N[C@@H](CC(=O)OC(C)(C)C)C(=O)N[C@@H](CC(=O)OC(C)(C)C)C(=O)N1CCC[C@H]1C(=O)O)[C@H](C)CC)[C@@H](C)OC(=O)CN(C)C(=O)[C@H](CCC(=O)OC(C)(C)C)NC(=O)[C@H](CCC(=O)OC(C)(C)C)NC(=O)CN	1
-	-	128	128 (≈ 85.2 µM)			CCCCCCCCCC(=O)NC[C@@H](C)C(=O)NCC(=O)N[C@H](CCC(=O)O)C(=O)N[C@@H](Cc1ccc(O)cc1)C(=O)N[C@@H]1C(=O)N[C@H]([C@H](C)CC)C(=O)N[C@@H](CC(=O)O)C(=O)N[C@@H](CC(=O)O)C(=O)N2CCC[C@H]2C(=O)NCC(=O)N[C@@H](CCC(=O)O)C(=O)N[C@@H](CC(=O)O)C(=O)N(C)CC(=O)O[C@@H]1C [Peptide C8] (Decanoyl-[β2hAla(R)]G[dE]YT[dI]DDPGED[Sar]; ester 5-C)	
-	-	128	128 (≈ 81.3 µM)	a lack of binding		CCCCCCCCCC(=O)NC[C@@H](C)C(=O)NCC(=O)N[C@H](CCC(=O)O)C(=O)N[C@@H](Cc1ccc(O)cc1)C(=O)N[C@@H]1C(=O)N[C@H]([C@H](C)CC)C(=O)N[C@@H](CC(=O)O)C(=O)N[C@@H](CC(=O)O)C(=O)N2CCC[C@H]2C(=O)NCC(=O)N[C@H](CCC(=O)O)C(=O)NCC(=O)N[C@@H](CCC(=O)O)C(=O)N(C)CC(=O)O[C@@H]1C [Peptide C9] (Decanoyl-[β2hAla(R)]G[dE]YT[dI]DDPG[dE]GE[Sar]; ester 5-C)	
-	-	128	128 (≈ 108 µM)			CCCCCCCCCC(=O)N[C@@H](CC(=O)O)C(=O)N[C@H]1CNC(=O)[C@@H]2CCCN2C(=O)[C@H](C(C)C)NC(=O)[C@@H](CC(=O)O)NC(=O)CNC(=O)[C@H](CC(=O)O)NC(=O)[C@H](CC(=O)O)NC(=O)[C@H](CCCCN)NC(=O)[C@@H](C(C)C)NC1=O [Peptide M1] (Decanoyl-D[Dap][dV]KDDG[dD]VP; lactam 2-C)	
-	-	128	128 (≈ 103 µM)			CCCCCCCCCC(=O)N[C@@H](CC(=O)O)C(=O)N[C@H]1CNC(=O)[C@@H]2CCCN2C(=O)[C@H](C(C)C)NC(=O)[C@@H](CC(=O)O)NC(=O)CNC(=O)[C@H](CC(=O)O)NC(=O)CNC(=O)[C@H](CC(=O)O)NC(=O)[C@H](CCCCN)NC(=O)[C@@H](C(C)C)NC1=O [Peptide M2] (Decanoyl-D[Dap][dV]KDGDG[dD]VP; lactam 2-C)	
-	-	128	128 (≈ 103 µM)		lack of binding	CCCCCCCCCC(=O)N[C@@H](CC(=O)O)C(=O)N[C@H]1CNC(=O)[C@@H]2CCCN2C(=O)[C@H](C(C)C)NC(=O)[C@H](CC(=O)O)NC(=O)CNC(=O)[C@H](CC(=O)O)NC(=O)CNC(=O)[C@H](CC(=O)O)NC(=O)[C@H](CCCCN)NC(=O)[C@@H](C(C)C)NC1=O [Peptide M3] (Decanoyl-D[Dap][dV]KDGDGDVP; lactam 2-C)	
-	-	128	128 (≈ 103 µM)			CCCCCCCCCC(=O)N[C@@H](CC(=O)O)C(=O)N[C@H]1CNC(=O)[C@@H]2CCCN2C(=O)[C@H](C(C)C)NC(=O)CNC(=O)[C@@H](CC(=O)O)NC(=O)CNC(=O)[C@H](CC(=O)O)NC(=O)[C@H](CC(=O)O)NC(=O)[C@H](CCCCN)NC(=O)[C@@H](C(C)C)NC1=O [Peptide M4] (Decanoyl-D[Dap][dV]KDDG[dD]GVP; lactam 2-C)	
-	-	128	128 (≈ 103 µM)			CCCCCCCCCC(=O)N[C@@H](CC(=O)O)C(=O)N[C@H]1CNC(=O)[C@@H]2CCCN2C(=O)[C@H](C(C)C)NC(=O)CNC(=O)[C@H](CC(=O)O)NC(=O)CNC(=O)[C@H](CC(=O)O)NC(=O)[C@H](CC(=O)O)NC(=O)[C@H](CCCCN)NC(=O)[C@@H](C(C)C)NC1=O [Peptide M5] (Decanoyl-D[Dap][dV]KDDGDGVP; lactam 2-C)	
